Measurements reported in patent US20160016929A1, “PRO-DRUG COMPOUNDS” (PROXIMAGEN LIMITED, priority 2013, published 2016).
Converted amounts (≈) assume the structure as drawn. Blank lines part the entries; values can stand above or below the molecule they belong to.

Legend:
[1] = Solubility in aqueous solutions (Table 3); format: physicochemical; conditions: aqueous solution
Experimental: The skilled person understands that the pH of the gastrointestinal tract changes along its length. […] For more detail see, for example, Measurement of gastrointestinal pH profiles in normal ambulant human subjects, Gut. […] Improved solubility is expected to result in improved absorption, and therefore improved oral bioavailability.
In an embodiment prodrugs of the invention are administered intravenously. High prodrug solubility is advantageous in order to reduce the volume of solution administered to the patient, and to reduce the risk of damage to the circulatory system. Solubility of >10 mg/mL is preferred.

hERG K+ channel = target: T1, hERG K+ channel (Homo sapiens, UniProt Q12809); experiment: hERG assay, IonWorks patch clamp electrophysiology; format: cell-based; conditions: human, pH 7.3; 11 uM; Chinese Hamster Lung cell line stably expressing hERG
T1 construct: a Chinese Hamster Lung cell line stably expressing the full length hERG channel; expressed in transfected cells; host or cells: Chinese Hamster Lung cell line
T1 sequence (Q12809 whole entry): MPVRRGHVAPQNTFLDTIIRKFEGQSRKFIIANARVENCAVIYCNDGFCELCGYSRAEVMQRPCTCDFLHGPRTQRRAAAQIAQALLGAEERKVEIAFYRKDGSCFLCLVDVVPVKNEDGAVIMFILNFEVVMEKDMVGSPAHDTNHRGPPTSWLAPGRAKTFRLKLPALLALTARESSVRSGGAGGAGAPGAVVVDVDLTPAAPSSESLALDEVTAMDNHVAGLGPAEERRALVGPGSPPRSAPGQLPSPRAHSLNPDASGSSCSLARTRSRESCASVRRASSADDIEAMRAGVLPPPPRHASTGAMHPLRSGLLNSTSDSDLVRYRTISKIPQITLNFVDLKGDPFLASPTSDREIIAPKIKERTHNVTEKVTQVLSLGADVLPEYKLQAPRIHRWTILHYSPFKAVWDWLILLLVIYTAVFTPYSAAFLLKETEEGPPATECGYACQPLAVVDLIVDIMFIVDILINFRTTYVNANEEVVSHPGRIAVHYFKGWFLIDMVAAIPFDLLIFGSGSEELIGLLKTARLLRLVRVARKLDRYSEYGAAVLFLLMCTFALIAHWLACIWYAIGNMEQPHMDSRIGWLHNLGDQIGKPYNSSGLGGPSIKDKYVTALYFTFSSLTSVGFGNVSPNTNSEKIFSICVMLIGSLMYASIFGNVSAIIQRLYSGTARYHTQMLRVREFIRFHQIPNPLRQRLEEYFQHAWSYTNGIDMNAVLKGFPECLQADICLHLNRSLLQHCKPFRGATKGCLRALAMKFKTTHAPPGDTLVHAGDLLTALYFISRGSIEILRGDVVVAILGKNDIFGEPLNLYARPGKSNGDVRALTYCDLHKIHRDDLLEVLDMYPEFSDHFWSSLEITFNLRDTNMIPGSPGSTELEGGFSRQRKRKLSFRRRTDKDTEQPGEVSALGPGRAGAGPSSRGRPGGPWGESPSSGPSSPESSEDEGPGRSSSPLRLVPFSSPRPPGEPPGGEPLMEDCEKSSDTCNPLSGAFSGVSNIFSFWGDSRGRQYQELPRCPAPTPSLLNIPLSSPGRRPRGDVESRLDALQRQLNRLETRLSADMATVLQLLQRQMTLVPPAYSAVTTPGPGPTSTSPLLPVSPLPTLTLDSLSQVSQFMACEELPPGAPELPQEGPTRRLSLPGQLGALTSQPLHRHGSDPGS
Experimental: Compounds of the invention were tested for inhibition of the human ether a go-go related gene (hERG) K^+ channel using IonWorks patch clamp electrophysiology. 8 Point concentration-response curves were generated on two occasions using 3-fold serial dilutions from the maximum assay concentration (33 uM). Electrophysiological recordings were made from a Chinese Hamster Lung cell line stably expressing the full length hERG channel. Single cell ion currents were measured in the perforated patch clamp configuration (100 ug/mL amphoterocin) at room temperature using an IonWorks Quattro instrument. The internal solution contained 140 mM KCl, 1 mM MgCl2, 1 mM EGTA and 20 mM HEPES and was buffered to pH 7.3. The external solution contained 138 mM NaCl, 2.7 mM KCl, 0.9 mM CaCl2, 0.5 mM MgCl2, 8 mM Na2HPO4 and 1.5 mM KH2PO4, and was buffered to pH 7.3. Cells were clamped at a holding potential of […] for 30 s and then stepped to +40 mV for 1 s. This was followed by a hyperpolarising step of 1 s to […] to evoke the hERG tail current. This sequence was repeated 5 times at a frequency of 0.25 Hz. Currents were measured from the tail step at the 5th pulse, and referenced to the holding current. Compounds were incubated for 6-7 min prior to a second measurement of the hERG signal using an identical pulse train. A minimum of 17 cells were required for each pIC50 curve fit. A control compound (quinidine) was used.

[2] = Pharmacokinetics: exposure of tonabersat in plasma after oral or intravenous dosing of prodrugs to rats; format: in vivo; conditions: fasted male Sprague Dawley rats; for % exposure of tonabersat after dosing the prodrugs of the invention via: Intravenous dosing (iv): compared to equimolar amount of tonabersat (0.78 mg/kg intravenous dosing); for % exposure of tonabersat after dosing the prodrugs of the invention via: Oral dosing (po): compared to equimolar amount of tonabersat (5.00 mg/kg oral dosing)
Experimental: Example Prodrugs of the claimed invention were dosed either intravenously or orally to fasted male Sprague Dawley rats. The rats underwent surgery for jugular vein cannulation 48 h prior to dosing. Following dosing, 0.25 mL blood samples were taken via the cannulae at 0, 5, 10, 20, 30, 45, 60, 120, 240 & 360 min in EDTA coated tubes. Tubes were spun at 13,000 rpm for 4 min and 100 ul of supernatant taken immediately and stored at −80° C. prior to analysis. Plasma samples were analysed by LC-MS/MS following extraction by protein precipitation, and levels of parent prodrug and tonabersat were measured by MRM (Multiple Reaction Monitoring) analysis against an extracted calibration curve of plasma samples spiked with the Example prodrug and tonabersat.
The exposure of tonabersat in plasma following dosing of the prodrugs of the invention was compared directly to the exposure observed following dosing of an equimolar amount of tonabersat under analogous assay conditions (5.00 mg/kg oral dosing or 0.78 mg/kg intravenous dosing). In an embodiment prodrugs of the present invention have >10% exposure of tonabersat obtained following either oral or intravenous dosing of the prodrug to a human or animal subject, compared to the exposure obtained from dosing an equimolar amount of tonabersat itself. In an embodiment the exposure of tonabersat following dosing of the prodrugs is >20%, or >30%, or >40%, or >50%, or preferably >70% compared to the exposure obtained from dosing an equimolar amount of tonabersat itself.

Structure (SMILES): CC(=O)c1ccc2c(c1)[C@H](NC(=O)c1ccc(F)c(Cl)c1)[C@H](OC(=O)OCC[N+](C)(C)C)C(C)(C)O2.[I-] [Example 2, (3S,4S)-6-Acetyl-4-[(3-chloro-4-fluorobenzene)amido]-2,2-dimethyl-3,4-dihydro-2H-1-benzopyran-3-yl 2-(trimethylazaniumyl)ethyl carbonate iodide]
solubility ([1]; aqueous buffer, pH not given): < 1000 µg/mL

Structure (SMILES): CCN(CC)CCOC(=O)O[C@H]1[C@@H](NC(=O)c2ccc(F)c(Cl)c2)c2cc(C(C)=O)ccc2OC1(C)C [Example 3, (3S,4S)-6-Acetyl-4-[(3-chloro-4-fluorobenzene)amido]-2,2-dimethyl-3,4-dihydro-2H-1-benzopyran-3-yl 2-(diethylamino)ethyl carbonate]
solubility ([1]; aqueous buffer, pH not given): < 1000 µg/mL
inhibition at 11 µM (hERG K+ channel): 20%

Structure (SMILES): CC(=O)c1ccc2c(c1)[C@H](NC(=O)c1ccc(F)c(Cl)c1)[C@H](OC(=O)OC[C@H](N)C(=O)O)C(C)(C)O2.Cl [Example 5, (2S)-3-[({[(3S,4S)-6-Acetyl-4-[(3-chloro-4-fluorobenzene)amido]-2,2-dimethyl-3,4-dihydro-2H-1-benzopyran-3-yl]oxy}carbonyl)oxy]-2-aminopropanoic acid hydrochloride]
% exposure of tonabersat after dosing the prodrugs of the invention via: Intravenous dosing (iv) [2]: 37%
% exposure of tonabersat after dosing the prodrugs of the invention via: Oral dosing (po) [2]: 39%

Structure (SMILES): CC(=O)c1ccc2c(c1)[C@H](NC(=O)c1ccc(F)c(Cl)c1)[C@H](OC(=O)NCC(=O)O)C(C)(C)O2 [Example 7, 2-[({[(3S,4S)-6-Acetyl-4-[(3-chloro-4-fluorobenzene)amido]-2,2-dimethyl-3,4-dihydro-2H-1-benzopyran-3-yl]oxy}carbonyl)amino]acetic acid]
solubility ([1]; pH 8.8, aqueous buffer): < 1000 µg/mL

Structure (SMILES): CC(=O)c1ccc2c(c1)[C@H](NC(=O)c1ccc(F)c(Cl)c1)[C@H](OC(=O)CNC(=O)[C@@H]1CCCN1)C(C)(C)O2 [Example 10, (3S,4S)-6-Acetyl-4-[(3-chloro-4-fluorobenzene)amido]-2,2-dimethyl-3,4-dihydro-2H-1-benzopyran-3-yl 2-[(2S)-pyrrolidin-2-ylformamido]acetate]
solubility ([1]; pH 4.2, aqueous buffer): 500 µg/mL (≈ 916 µM)
inhibition at 11 µM (hERG K+ channel): 32%

Structure (SMILES): CC(=O)c1ccc2c(c1)[C@H](NC(=O)c1ccc(F)c(Cl)c1)[C@H](OC(=O)CNC(=O)CN)C(C)(C)O2.Cl [Example 12, (3S,4S)-6-Acetyl-4-[(3-chloro-4-fluorobenzene)amido]-2,2-dimethyl-3,4-dihydro-2H-1-benzopyran-3-yl 2-(2-aminoacetamido)acetate hydrochloride]
solubility ([1]; pH 5.1, aqueous buffer): > 10000 µg/mL
inhibition at 11 µM (hERG K+ channel): 43%

Structure (SMILES): CC(=O)c1ccc2c(c1)[C@H](NC(=O)c1ccc(F)c(Cl)c1)[C@H](OC(=O)[C@@H](NC(=O)[C@@H](N)C(C)C)C(C)C)C(C)(C)O2.Cl [Example 15, (3S,4S)-6-Acetyl-4-[(3-chloro-4-fluorobenzene)amido]-2,2-dimethyl-3,4-dihydro-2H-1-benzopyran-3-yl (2S)-2-[(2S)-2-amino-3-methylbutanamido]-3-methylbutanoate hydrochloride]
solubility ([1]; pH 4.5, aqueous buffer): > 10000 µg/mL
inhibition at 11 µM (hERG K+ channel): 21%

Structure (SMILES): CC(=O)c1ccc2c(c1)[C@H](NC(=O)c1ccc(F)c(Cl)c1)[C@H](OC(=O)[C@@H](NC(=O)CN)C(C)C)C(C)(C)O2.Cl [Example 16, (3S,4S)-6-Acetyl-4-[(3-chloro-4-fluorobenzene)amido]-2,2-dimethyl-3,4-dihydro-2H-1-benzopyran-3-yl (2S)-2-(2-aminoacetamido)-3-methylbutanoate hydrochloride]
solubility ([1]; pH 4.4, aqueous buffer): 1000 µg/mL

Structure (SMILES): CC(=O)c1ccc2c(c1)[C@H](NC(=O)c1ccc(F)c(Cl)c1)[C@H](OC(=O)CCCN1CCOCC1)C(C)(C)O2.Cl [Example 17, (3S,4S)-6-Acetyl-4-[(3-chloro-4-fluorobenzene)amido]-2,2-dimethyl-3,4-dihydro-2H-1-benzopyran-3-yl 4-(morpholin-4-yl)butanoate hydrochloride]
solubility ([1]; pH 5.7, aqueous buffer): 1000 µg/mL
inhibition at 11 µM (hERG K+ channel): 27%

Structure (SMILES): CC(=O)c1ccc2c(c1)[C@H](NC(=O)c1ccc(F)c(Cl)c1)[C@H](OC(=O)[C@H](C)NC(=O)[C@@H](N)C(C)C)C(C)(C)O2.Cl [Example 20, (3S,4S)-6-Acetyl-4-[(3-chloro-4-fluorobenzene)amido]-2,2-dimethyl-3,4-dihydro-2H-1-benzopyran-3-yl (2S)-2-[(2S)-2-amino-3-methylbutanamido]propanoate hydrochloride]
solubility ([1]; pH 5.6, aqueous buffer): > 10000 µg/mL

Structure (SMILES): CC(=O)c1ccc2c(c1)[C@H](NC(=O)c1ccc(F)c(Cl)c1)[C@H](OC(=O)[C@H](C)N(C)C(=O)[C@@H](N)C(C)C)C(C)(C)O2.Cl [Example 29, 6-Acetyl-4-[(3-chloro-4-fluorobenzene)amido]-2,2-dimethyl-3,4-dihydro-2H-1-benzopyran-3-yl (2S)-2-[(2S)-2-amino-N,3-dimethylbutanamido]propanoate hydrochloride]
solubility ([1]; pH 5.3, aqueous buffer): > 10000 µg/mL

Second part, led by results:

solubility ([1]; aqueous buffer, pH not given): < 1000 µg/mL
% exposure of tonabersat after dosing the prodrugs of the invention via: Intravenous dosing (iv) [2]: <LLOQ
% exposure of tonabersat after dosing the prodrugs of the invention via: Oral dosing (po) [2]: <LLOQ
Structure (SMILES): CC(=O)c1ccc2c(c1)[C@H](NC(=O)c1ccc(F)c(Cl)c1)[C@H](OC(=O)N[C@H](C(=O)O)C(C)C)C(C)(C)O2 [Example 8, (2S)-2-[({[(3S,4S)-6-Acetyl-4-[(3-chloro-4-fluorobenzene)amido]-2,2-dimethyl-3,4-dihydro-2H-1-benzopyran-3-yl]oxy}carbonyl)amino]-3-methylbutanoic acid]

solubility ([1]; aqueous buffer, pH 5.0): > 10000 µg/mL
Structure (SMILES): CC(=O)c1ccc2c(c1)[C@H](NC(=O)c1ccc(F)c(Cl)c1)[C@H](OC(=O)CNC(=O)[C@@H](N)CC(C)C)C(C)(C)O2.Cl [Example 11, (3S,4S)-6-Acetyl-4-[(3-chloro-4-fluorobenzene)amido]-2,2-dimethyl-3,4-dihydro-2H-1-benzopyran-3-yl 2-[(2S)-2-amino-4-methylpentanamido]acetate hydrochloride]
inhibition at 11 µM (hERG K+ channel): 34%

solubility ([1]; aqueous buffer, pH 5.0): > 10000 µg/mL
Structure (SMILES): CC[C@H](C)[C@H](N)C(=O)NCC(=O)O[C@H]1[C@@H](NC(=O)c2ccc(F)c(Cl)c2)c2cc(C(C)=O)ccc2OC1(C)C.Cl [Example 13, (3S,4S)-6-Acetyl-4-[(3-chloro-4-fluorobenzene)amido]-2,2-dimethyl-3,4-dihydro-2H-1-benzopyran-3-yl 2-[(2S,3S)-2-amino-3-methylpentanamido]acetate hydrochloride]
inhibition at 11 µM (hERG K+ channel): 2%

solubility ([1]; pH 5.5, aqueous buffer): > 10000 µg/mL
Structure (SMILES): CC(=O)c1ccc2c(c1)[C@H](NC(=O)c1ccc(F)c(Cl)c1)[C@H](OC(=O)CNC(=O)[C@@H](N)C(C)C)C(C)(C)O2.Cl [Example 14, (3S,4S)-6-Acetyl-4-[(3-chloro-4-fluorobenzene)amido]-2,2-dimethyl-3,4-dihydro-2H-1-benzopyran-3-yl 2-[(2S)-2-amino-3-methylbutanamido]acetate hydrochloride]
inhibition at 11 µM (hERG K+ channel): 14%

solubility ([1]; pH 5.2, aqueous buffer): > 10000 µg/mL
Structure (SMILES): CC(=O)c1ccc2c(c1)[C@H](NC(=O)c1ccc(F)c(Cl)c1)[C@H](OC(=O)[C@H](C)NC(=O)[C@@H](N)CC(C)C)C(C)(C)O2.Cl [Example 21, 6-Acetyl-4-[(3-chloro-4-fluorobenzene)amido]-2,2-dimethyl-3,4-dihydro-2H-1-benzopyran-3-yl (2S)-2-[(2S)-2-amino-4-methylpentanamido]propanoate hydrochloride]
